# Data as given in the RepoRT retention time repository.
# Test: HILIC, Waters ACQUITY UPLC BEH Amide, 100 × 2.1 mm, 1.7 µm; A: water + 0.125% formic acid + 10 mM ammonium formate; B: 5% water + 95% acetonitrile + 0.125% formic acid + 10 mM ammonium formate; gradient (min/%B) 0/100 2/100 7.7/70 9.5/40 10.25/30 12.75/100 17/100
# Conditions: stereoisomer not certain
row,SMILES,LC retention time [min]
1,CCCCN1CCCC1CNC(=O)c1cc(C#N)c2ccccc2c1OC (stereo unspecified) [Nafadotride],2.05
2,COc1ccccc1N1CCN(CC(O)COc2cccc3ccccc23)CC1 (stereo unspecified) [Naftopidil],1.99
3,Oc1ccc2c3c1OC1C(O)CCC4(O)C(C2)N(CC2CCC2)CCC314 (stereo unspecified) [Nalbuphine],5.25
4,Oc1ccc2c3c1OC1c4[nH]c5ccccc5c4CC4(O)C(C2)N(CC2CC2)CCC314 (stereo unspecified) [Naltrindole],4.45
5,CC12CCC3C4CCC(=O)C=C4CCC3C1CCC2O (stereo unspecified) [Nandrolone],1.06
6,CC1OC(OC2C(Oc3cc(O)c4c(c3)OC(c3ccc(O)cc3)CC4=O)OC(CO)C(O)C2O)C(O)C(O)C1O (stereo unspecified) [Naringin],5.61
7,CC(C)C1CCC(C(=O)NC(Cc2ccccc2)C(=O)O)CC1 (stereo unspecified) [Nateglinide],1.3
8,CCc1nn(CCCN2CCN(c3cccc(Cl)c3)CC2)c(=O)n1CCOc1ccccc1 [Nefazodone],1.88
9,Cc1c(O)cccc1C(=O)NC(CSc1ccccc1)C(O)CN1CC2CCCCC2CC1C(=O)NC(C)(C)C (stereo unspecified) [Nelfinavir],1.55
10,CC(=O)OCC=C(C)CCC=C(C)C [Nerylacetate],0.99
11,O=C(CCNNC(=O)c1ccncc1)NCc1ccccc1 [Nialamide],1.69
12,O=C(NCCO[N+](=O)[O-])c1cccnc1 [Nicorandil],1.11
13,NC(=O)c1ccc[n+](C2OC(CO)C(O)C2O)c1 (stereo unspecified) [Nicotinamide riboside cation],7.51
14,NC(=O)c1cccnc1 [Nicotinamide],1.7
15,CN1CCCC1c1cccnc1 (stereo unspecified) [Nicotine],5.34
16,O=C(O)c1cccnc1 [Nicotinic acid],4.01
17,O=C(O)CNC(=O)c1cccnc1 [Nicotinoylglycine],7.08
18,COC(=O)C1=C(C)NC(C)=C(C(=O)OC)C1c1ccccc1[N+](=O)[O-] [Nifedipine],1.02
19,Cn1c(NCCN(CCO)CCCc2ccc([N+](=O)[O-])cc2)cc(=O)n(C)c1=O [Nifekalant],3.21
20,CN1C(=O)CN=C(c2ccccc2)c2cc([N+](=O)[O-])ccc21 [Nimetazepam],0.98
21,COCCOC(=O)C1=C(C)NC(C)=C(C(=O)OC(C)C)C1c1cccc([N+](=O)[O-])c1 (stereo unspecified) [Nimodipine],0.94
22,O=C1CN=C(c2ccccc2)c2cc([N+](=O)[O-])ccc2N1 [Nitrazepam],1.2
23,c1cncc(C2CCCN2)c1 (stereo unspecified) [Nornicotine],5.98
24,O=C1Nc2ccc(Cl)cc2C(c2ccccc2)=NC1O (stereo unspecified) [Oxazepam],1.37
25,COc1ccc2c3c1OC1C(=O)CCC4(O)C(C2)N(C)CCC314 (stereo unspecified) [Oxycodone],4.58
26,CN1CCC23c4c5ccc(O)c4OC2C(=O)CCC3(O)C1C5 (stereo unspecified) [Oxymorphone],5.5
27,COc1ccc(Cc2nccc3cc(OC)c(OC)cc23)cc1OC [Papaverine],1.54
28,CCOP(=O)(OCC)Oc1ccc([N+](=O)[O-])cc1 [Paraoxon],1.02

# Further lines, results first:
row,LC retention time [min],SMILES
1,1,CC(=O)Oc1ccccc1C(=O)Nc1ncc([N+](=O)[O-])s1 [Nitazoxanide]
2,0.95,CCOC(=O)C1=C(C)NC(C)=C(C(=O)OC)C1c1cccc([N+](=O)[O-])c1 (stereo unspecified) [Nitrendipine]
3,4.65,CNC(=C[N+](=O)[O-])NCCSCc1csc(CN(C)C)n1 [Nizatidine]
4,1,COc1ccc(-c2cc(=O)c3c(OC)c(OC)c(OC)c(OC)c3o2)cc1OC [Nobiletin]
5,6.99,CCCCC(N)C(=O)O (stereo unspecified) [Norleucine]
6,4.89,CCCC(N)C(=O)O (stereo unspecified) [Norvaline]
7,1.31,COc1ccc2c(c1OC)C(=O)OC2C1c2c(cc3c(c2OC)OCO3)CCN1C (stereo unspecified) [Noscapine]
8,7.6,CC(=O)OCC[C@H](N)C(=O)O [O-Acetyl-L-homoserine]
9,7.67,CC(=O)OCC(N)C(=O)O (stereo unspecified) [O-Acetylserine]
10,9.23,NCCOP(=O)(O)O [O-Phosphocolamine]
11,9.85,NC(COP(=O)(O)O)C(=O)O (stereo unspecified) [O-Phosphoserine]
12,8.06,NC(CCOC(=O)CCC(=O)O)C(=O)O (stereo unspecified) [O-Succinylhomoserine]
13,1.24,O=C(O)CCCCCCCCCCCCCCCCC(=O)O [Octadecanedioic acid]
14,6.98,CCCCCCCC=O [Octanal]
15,8.47,CCCCCCCCO [Octanol]
16,10.3,CC(NC(CCCN=C(N)N)C(=O)O)C(=O)O (stereo unspecified) [Octopine]
17,4.56,Cc1cc2c(s1)Nc1ccccc1N=C2N1CCN(C)CC1 [Olanzapine]
18,4.76,CCCc1nc(C(C)(C)O)c(C(=O)O)n1Cc1ccc(-c2ccccc2-c2nn[nH]n2)cc1 [Olmesartan]
19,4.41,CN(C)CCC=C1c2ccccc2COc2ccc(CC(=O)O)cc21 [Olopatadine]

row,LC retention time [min],SMILES
1,2.83,Cc1nccn1CC1CCc2c(c3ccccc3n2C)C1=O (stereo unspecified) [Ondansetron]
2,0.89,CCCCCCCCCCCC(CC1OC(=O)C1CCCCCC)OC(=O)C(CC(C)C)NC=O (stereo unspecified) [Orlistat]
3,4.19,COc1cc(C)c(Cc2cnc(N)nc2N)cc1OC [Ormetroprim]
4,1.08,Cc1ncc([N+](=O)[O-])n1CC(O)CCl (stereo unspecified) [Ornidazole]
5,9.6,NCCCC(N)C(=O)O (stereo unspecified) [Ornithine]
6,2.52,Nc1ccccc1S(=O)(=O)O [Orthanilic acid]
7,2.94,CCN(CC)CC1CCCCN1CC(=O)N1c2ccccc2C(=O)Nc2cccnc21 (stereo unspecified) [Otenzepad]
8,1.11,O=C(O)CCc1nc(-c2ccccc2)c(-c2ccccc2)o1 [Oxaprozin]
9,1.08,Clc1ccc(CON=C(Cn2ccnc2)c2ccc(Cl)cc2Cl)c(Cl)c1 [Oxiconazole]
10,2.01,CC[N+](C)(CC)CCOC(=O)C(O)(c1ccccc1)C1CCCCC1 (stereo unspecified) [Oxyphenonium]
11,2.99,O=C(O)C=Cc1ccc(Cn2ccnc2)cc1 [Ozagrel]
12,1.3,COc1ccc(C(=O)O)cc1 [P-Anisic acid]
13,3.23,CCCCCCCCCCCCCCCC(=O)OC(CC(=O)[O-])C[N+](C)(C)C (stereo unspecified) [Palmitoylcarnitine cation]
14,4.05,O=C1c2cccc3c2C(CCC3)CN1C1CN2CCC1CC2 (stereo unspecified) [Palonosetron]
15,1.9,CC(C)(CO)C(O)C(=O)NCCCO (stereo unspecified) [Panthenol]
16,1.21,COc1ccnc(CS(=O)c2nc3ccc(OC(F)F)cc3[nH]2)c1OC (stereo unspecified) [Pantoprazole]
17,3.5,CC(C)(CO)C(O)C(=O)NCCC(=O)O (stereo unspecified) [Pantothenic acid]
18,0.98,CCC(=O)NS(=O)(=O)c1ccc(-c2c(-c3ccccc3)noc2C)cc1 [Parecoxib]
19,3.08,Fc1ccc(C2CCNCC2COc2ccc3c(c2)OCO3)cc1 (stereo unspecified) [Paroxetine]
